Key:
Renin (Homo sapiens) = biological target: T1, Renin (Homo sapiens) (UniProt P00797); assay: Inhibitory potency against renin relative to H-Pro-His-Pro-Phe-His-Phe-Phe-Val-Tyr-D-Lys-OH peptide
T1 sequence (whole entry): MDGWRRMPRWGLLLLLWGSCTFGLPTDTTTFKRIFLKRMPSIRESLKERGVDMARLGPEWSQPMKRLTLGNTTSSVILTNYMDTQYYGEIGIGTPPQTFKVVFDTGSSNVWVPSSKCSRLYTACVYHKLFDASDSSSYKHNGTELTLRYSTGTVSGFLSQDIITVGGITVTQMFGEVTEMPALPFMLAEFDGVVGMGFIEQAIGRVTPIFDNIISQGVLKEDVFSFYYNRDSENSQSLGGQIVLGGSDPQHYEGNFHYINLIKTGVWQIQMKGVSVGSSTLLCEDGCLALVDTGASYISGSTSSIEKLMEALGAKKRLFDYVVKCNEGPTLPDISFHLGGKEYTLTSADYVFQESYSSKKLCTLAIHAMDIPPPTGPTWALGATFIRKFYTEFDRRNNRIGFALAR

Renin = biological target: T2, Renin (Homo sapiens, UniProt P00797); assay: In vitro inhibitory activity against renin from lyophilized human plasma; type: cell-free
T2 sequence (P00797 whole entry): T1 sequence (whole entry)

SMILES	Relative potency (Renin (Homo sapiens))	IC50 (Renin) [µM]
CC[C@@H](C)[C@H](NC(=O)[C@H](Cc1ccccc1)NC(=O)[C@H](Cc1ccccc1)NC(=O)[C@H](Cc1c[nH]cn1)NC(=O)[C@H](Cc1ccccc1)NC(=O)[C@H]1CCCN1C(=O)[C@H](Cc1c[nH]cn1)NC(=O)[C@H]1CCCN1)C(=O)N[C@@H](Cc1c[nH]cn1)C(=O)N[C@H](CCCCN)C(=O)O	0.6	
CC[C@@H](C)[C@H](NC(=O)[C@@H](SC[C@H](CC(C)C)NC(=O)[C@H](Cc1c[nH]cn1)NC(=O)[C@H](Cc1ccccc1)NC(=O)[C@H]1CCCN1C(=O)[C@H](Cc1c[nH]cn1)NC(=O)[C@H]1CCCN1)C(C)C)C(=O)N[C@@H](Cc1c[nH]cn1)C(=O)N[C@H](CCCCN)C(=O)O	1.6	6
CC[C@@H](C)[C@H](NC(=O)[C@@H](NC[C@H](CC(C)C)NC(=O)[C@H](Cc1c[nH]cn1)NC(=O)[C@H](Cc1ccccc1)NC(=O)[C@H]1CCCN1C(=O)[C@H](Cc1c[nH]cn1)NC(=O)[C@H]1CCCN1)C(C)C)C(=O)N[C@@H](Cc1c[nH]cn1)C(=O)N[C@H](CCCCN)C(=O)O	200	0.049
CC[C@@H](C)[C@H](NC(=O)[C@H](Cc1ccccc1)NC(=O)[C@H](Cc1ccccc1)NC(=O)[C@H](Cc1cnc[nH]1)NC(=O)[C@H](Cc1ccccc1)NC(=O)[C@H]1CCCN1C(=O)[C@H](Cc1cnc[nH]1)NC(=O)[C@H]1CCCN1)C(=O)N[C@@H](Cc1cnc[nH]1)C(=O)N[C@H](CCCCN)C(=O)O		170
CC[C@@H](C)[C@H](NC(=O)[C@H](C(C)C)[S+]([O-])C[C@H](CC(C)C)NC(=O)[C@H](Cc1c[nH]cn1)NC(=O)[C@H](Cc1ccccc1)NC(=O)[C@H]1CCCN1C(=O)[C@H](Cc1c[nH]cn1)NC(=O)[C@H]1CCCN1)C(=O)N[C@@H](Cc1c[nH]cn1)C(=O)N[C@H](CCCCN)C(=O)O (some centres not stated)	4	2.5
CC(C)[C@H](NC(=O)[C@H](Cc1ccccc1)NC(=O)[C@H](Cc1ccccc1)NC(=O)[C@H](Cc1c[nH]cn1)NC(=O)[C@H](Cc1ccccc1)NC(=O)[C@H]1CCCN1C(=O)[C@H](Cc1c[nH]cn1)NC(=O)[C@H]1CCCN1)C(=O)N[C@@H](Cc1ccc(O)cc1)C(=O)N[C@H](CCCCN)C(=O)O	1	
CC(C)[C@H](NC(=O)[C@H](Cc1ccccc1)NC(=O)[C@H](Cc1ccccc1)NC(=O)[C@H](Cc1cnc[nH]1)NC(=O)[C@H](Cc1ccccc1)NC(=O)[C@H]1CCCN1C(=O)[C@H](Cc1cnc[nH]1)NC(=O)[C@H]1CCCN1)C(=O)N[C@@H](Cc1ccc(O)cc1)C(=O)N[C@H](CCCCN)C(=O)O		10
CC[C@@H](C)[C@H](NC(=O)/C=C/[C@H](CC(C)C)NC(=O)[C@H](Cc1cnc[nH]1)NC(=O)[C@H](Cc1ccccc1)NC(=O)[C@H]1CCCN1C(=O)[C@H](Cc1cnc[nH]1)NC(=O)[C@H]1CCCN1)C(=O)N[C@@H](Cc1cnc[nH]1)C(=O)N[C@H](CCCCN)C(=O)O		6.2
CC[C@@H](C)[C@H](NC(=O)/C=C/[C@H](CC(C)C)NC(=O)[C@H](Cc1c[nH]cn1)NC(=O)[C@H](Cc1ccccc1)NC(=O)[C@H]1CCCN1C(=O)[C@H](Cc1c[nH]cn1)NC(=O)[C@H]1CCCN1)C(=O)N[C@@H](Cc1c[nH]cn1)C(=O)N[C@H](CCCCN)C(=O)O	1.6	

Reference: ChEMBL document CHEMBL1124153, “Synthesis and renin inhibitory activity of angiotensinogen analogues having dehydrostatine, Leu psi [CH2S]Val, or Leu psi [CH2SO]Val at the P1-P1' cleavage site” (J Med Chem, 1988)
